Assay results published in patent US20070110833A1, “Composition comprising the alcohol compound isolated from the extract of cucurbitaceae family plant having anti-adipogenic and anti-obesity activity” (priority 2003, published 2007).

System: 3T3-L1 cell
Test: Inhibition of adipocyte (3T3-L1) differentiation and triglyceride accumulation, Oil Red O staining
Type: cell-based
Method: Adipocyte cell (3T3-L1) purchased from ATCC (American Tissue Culture Collection, USA) was cultured in RPMI medium containing 10% FBS and MDI cocktail (isobutylmethylxanthine, dexamethasone, insulin) was added thereto for differentiating into mature adipocytes cell. After two days, the medium was replaced and treated with only insulin. Thereafter, the medium was replaced and equal concentration of insulin was treated again every other day. MDI ranging from 2.5 to 1000 ug/ml of the concentration was treated when the adipocytes differentiation was induced and equal concentration of the MDI was treated at every replacement of the medium.
After eight days lapsed, the accumulated fat within differentiated cell was stained with Oil Red O staining reagent and the absorbance was determined with optical density qualitatively. The inhibition percentage (%) was calculated by following Empirical formula 1. The Inhibition Percentage (%)=[O.D. of test group]/[O.D. value of Control group]×100 [Empirical Formula 1]

C[S+]([O-])c1ccc(-c2nc(-c3ccncc3)c(-c3ccc(F)cc3)[nH]2)cc1 (centres unmarked) [SB203580]
adipocyte differentiation and triglyceride accumulation (Experimental Example 1-3, cmc-9 and controls, FIG. 5): the triglyceride was not formed | level of produced triglycerides in differentiated 3T3-L1 cells (Oil Red O) (MDI-induced differentiation, 8 days, extracts 1 mg/ml, SB203580 10 uM, FIGS. 1 and 2): the triglyceride was not produced
